Consider eight compounds from ChEMBL document CHEMBL1155809, “Design, synthesis, and antihepatocellular carcinoma activity of nitric oxide releasing derivatives of oleanolic acid” (J Med Chem, 2008).

Active and inactive are the calls of the source. The rule behind the calls is not given here.

In series [1] the test system is MCF7. In words: Cytotoxicity against human MCF7 cells assessed as cell death by lactate dehydrogenase release assay. The series is classed as functional, cell-based.
Series [2] concerns HEK293. Put plainly: Cytotoxicity against HEK293 cells assessed as cell death by lactate dehydrogenase release assay. The series is classed as functional, cell-based. The note with it: Homo sapiens.
Another series deals with Hep 3B2. In words: Cytotoxicity against human Hep3B cells assessed as levels of nitric oxide production at 100 uM after 30 to 300 mins by colorimetric assay. The series is classed as functional, cell-based.
The subject of series [3] is HeLa. In words: Cytotoxicity against human HeLa cells assessed as levels of nitric oxide production at 100 uM after 30 to 300 mins by colorimetric assay. The series is classed as functional, cell-based.
Series [4] has as its system PC-3. Put plainly: Cytotoxicity against human PC3 cells assessed as levels of nitric oxide production at 100 uM after 30 to 300 mins by colorimetric assay. It counts as functional, cell-based.
Series [5] relates to MCF7. Put plainly: Cytotoxicity against human MCF7 cells assessed as levels of nitric oxide production at 100 uM after 30 to 300 mins by colorimetric assay. The series is classed as functional, cell-based.
Series [6] relates to HEK293. In words: Cytotoxicity against human HEK293 cells assessed as levels of nitric oxide production at 100 uM after 30 to 300 mins by colorimetric assay. It counts as functional, cell-based.
Another series has as its system Mus musculus. Put plainly: Toxicity in BALB/c mouse at 15 to 100 mg/kg, ip daily for 3 days assessed after 15 days. The series is classed as organism-based. On the set-up: dose 15-100 mg/kg, route intraperitoneal. The settings on record: in vivo, 360 h.
Series [7] is described as follows: Antitumor activity against human Hep3B cells xenografted in non-obese diabetic SCID mouse assessed as reduction in tumor size at 15 mg/kg, ip after 35 days. It counts as functional, Hep 3B2. The note with it: route intraperitoneal. A general note: In xenograft studies the graft and the host belong to different species.
Series [8] in a line: Antitumor activity against human Hep3B cells xenografted in non-obese diabetic SCID mouse assessed as reduction in tumor weight at 15 mg/kg, ip after 35 days. The series is classed as functional, Hep 3B2. The settings on record: route intraperitoneal.
Series [9] concerns HepG2. In words: Cytotoxicity against human HepG2 cells assessed as levels of nitric oxide production at 100 uM after 30 to 300 mins by colorimetric assay. It counts as functional, cell-based.
The test system of series [10] is HepG2. In words: Cytotoxicity against human HepG2 cells assessed as cell death at 1 uM after 24 hrs by lactate dehydrogenase release assay. It counts as functional.
Series [11] concerns HepG2. Put plainly: Cytotoxicity against human HepG2 cells assessed as cell death at 0.1 uM after 24 hrs by lactate dehydrogenase release assay. It counts as functional.
Series [12] relates to HepG2. Put plainly: Cytotoxicity against human HepG2 cells assessed as cell death at 0.01 uM after 24 hrs by lactate dehydrogenase release assay. It counts as functional.
Series [13] relates to HepG2. In words: Cytotoxicity against human HepG2 cells assessed as cell death at 0.001 uM after 24 hrs by lactate dehydrogenase release assay. It counts as functional.
A short description of series [14]: Cytotoxicity against human Hep3B cells assessed as cell death at 1 uM after 24 hrs by lactate dehydrogenase release assay. The series is classed as functional, Hep 3B2.
Series [15] is described as follows: Cytotoxicity against human Hep3B cells assessed as cell death at 0.1 uM after 24 hrs by lactate dehydrogenase release assay. The series is classed as functional, Hep 3B2.
The nature of series [16]: Cytotoxicity against human Hep3B cells assessed as cell death at 0.01 uM after 24 hrs by lactate dehydrogenase release assay. The series is classed as functional, Hep 3B2.
Series [17] is described as follows: Cytotoxicity against human Hep3B cells assessed as cell death at 0.001 uM after 24 hrs by lactate dehydrogenase release assay. The series is classed as functional, Hep 3B2.
For series [18], the system named is HeLa. Put plainly: Cytotoxicity against human HeLa cells assessed as cell death by lactate dehydrogenase release assay. The series is classed as functional, cell-based.
Series [19] relates to PC-3. In words: Cytotoxicity against human PC3 cells assessed as cell death by lactate dehydrogenase release assay. It counts as functional, cell-based.

In the case of `CC(CCOc1no[n+]([O-])c1S(=O)(=O)c1ccccc1)OC(=O)CCC(=O)O[C@H]1CC[C@]2(C)[C@H]3CC=C4[C@@H]5CC(C)(C)CC[C@]5(C(=O)O)CC[C@@]4(C)[C@]3(C)CC[C@H]2C1(C)C` (some centres not stated), the outcome in the series on MCF7 [1], in the series with HEK293 [2], with HeLa [3], in the series on PC-3 [4], in the series with MCF7 [5] and in the series on HEK293 [6] was inactive. Further, the outcome in the series on HeLa [18] and in the series with PC-3 [19] was inactive. The result with Hep 3B2 and with HepG2 [9] was Active. Further, the Activity entry in the series on Mus musculus is reported as “Non-toxic”; in [7] it was 232 mm3; in series [8], 0.262 g; in the series on HepG2 [10] it was 100%; in the series with HepG2 [11] it was 93.5%; in the series with HepG2 [12], 13.34%. In addition, the Activity in the series on HepG2 [13] was 1.7%; in series [14] it was 100%; in series [15], 92.4%; in series [16] it was 14.23%; in series [17] it was 4.7%.
As for `CC1(C)CC[C@]2(C(=O)O)CC[C@]3(C)C(=CC[C@@H]4[C@@]5(C)CC[C@H](OC(=O)CCC(=O)NCCOc6no[n+]([O-])c6S(=O)(=O)c6ccccc6)C(C)(C)[C@@H]5CC[C@]43C)[C@@H]2C1`, the result in the series with MCF7 [1], in the series on HEK293 [2], with HeLa [3], in the series with PC-3 [4], in the series with MCF7 [5] and in the series with HEK293 [6] was inactive. In addition, the result in the series with HeLa [18] and with PC-3 [19] was inactive. Moreover, the outcome with Hep 3B2 and with HepG2 [9] was Active. The Activity in the series on HepG2 [10] was found to be 74.53%; with HepG2 [11], 13.01%; with HepG2 [12] it was 8.51%; in the series with HepG2 [13], 0%; in series [14], 66.21%; in series [15], 16.34%. Moreover, the Activity in series [16] is reported as 5.26%; in series [17] it was 0%.
As to `CC1(C)CC[C@]2(C(=O)O)CC[C@]3(C)C(=CC[C@@H]4[C@@]5(C)CC[C@H](OC(=O)CCC(=O)OCc6c(-c7ccccc7)no[n+]6[O-])C(C)(C)[C@@H]5CC[C@]43C)[C@@H]2C1`, the outcome in the series with MCF7 [1], with HEK293 [2], in the series on HeLa [3], with PC-3 [4], in the series on MCF7 [5] and with HEK293 [6] was inactive. For the same compound, the outcome in the series with HeLa [18] and in the series on PC-3 [19] was inactive. Besides, the outcome in the series with Hep 3B2 and with HepG2 [9] was Active. For the same compound, the Activity (with HepG2 [10]; with HepG2 [11]; with HepG2 [12]; in the series with HepG2 [13]; in series [14]; in series [15]) was 0% each time. The Activity in series [16] and in [17] was 0% throughout.
As for `CC1(C)CC[C@]2(C(=O)O)CC[C@]3(C)C(=CC[C@@H]4[C@@]5(C)CC[C@H](OC(=O)CCC(=O)OCc6cccc(Oc7no[n+]([O-])c7S(=O)(=O)c7ccccc7)c6)C(C)(C)[C@@H]5CC[C@]43C)[C@@H]2C1`, the result in the series on MCF7 [1], in the series on HEK293 [2], with HeLa [3], in the series on PC-3 [4], in the series on MCF7 [5] and in the series on HEK293 [6] was inactive. Further, the outcome in the series with HeLa [18] and in the series with PC-3 [19] was inactive. Moreover, the outcome in the series with Hep 3B2 and in the series with HepG2 [9] was Active. The Activity (in the series with HepG2 [10]; in the series with HepG2 [11]; in the series on HepG2 [12]; in the series with HepG2 [13]; in [14]; in series [15]) was 0% throughout. Further, the Activity in series [16] and in series [17] was 0% in each case.
In the case of `CC1(C)CC[C@]2(C(=O)O)CC[C@]3(C)C(=CC[C@@H]4[C@@]5(C)CC[C@H](OC(=O)CCC(=O)OCCCCOc6no[n+]([O-])c6S(=O)(=O)c6ccccc6)C(C)(C)[C@@H]5CC[C@]43C)[C@@H]2C1`, the outcome in the series with MCF7 [1], with HEK293 [2], with HeLa [3], in the series on PC-3 [4], with MCF7 [5] and with HEK293 [6] was inactive. Moreover, the outcome in the series with HeLa [18] and in the series on PC-3 [19] was inactive. For the same compound, the outcome with Hep 3B2 and with HepG2 [9] was Active. In addition, the Activity with HepG2 [10] came to 98.16%; in the series on HepG2 [11] it was 56.35%; with HepG2 [12], 10.96%; in the series with HepG2 [13], 2.6%; in series [14], 100%; in series [15] it was 61.18%. The Activity was 7.52% in series [16] and 0% in series [17].
For `CC(CCOc1no[n+]([O-])c1S(=O)(=O)c1ccccc1)OC(=O)[C@]12CCC(C)(C)C[C@H]1C1=CC[C@@H]3[C@@]4(C)CC[C@H](OC(=O)C(F)(F)F)C(C)(C)[C@@H]4CC[C@@]3(C)[C@]1(C)CC2` (some centres not stated), the outcome in the series on MCF7 [1], with HEK293 [2], in the series with HeLa [3], in the series on PC-3 [4], with MCF7 [5] and with HEK293 [6] was inactive. Moreover, the outcome in the series with HeLa [18] and in the series with PC-3 [19] was inactive. The result in the series on Hep 3B2 and in the series on HepG2 [9] was Active. Besides, the Activity (in the series on HepG2 [10]; in the series with HepG2 [11]; with HepG2 [12]; in the series with HepG2 [13]; in series [14]; in series [15]) was 0% in each case. For the same compound, the Activity in [16] and in series [17] was 0% throughout.
In the case of `C[C@H](CCC(=O)O)[C@H]1CC[C@H]2[C@@H]3[C@@H](O)C[C@@H]4C[C@H](O)CC[C@]4(C)[C@H]3CC[C@]12C` [URSODIOL], the outcome in the series on MCF7 [1], in the series with HEK293 [2], in the series on HeLa [3], in the series on PC-3 [4], in the series on MCF7 [5] and in the series with HEK293 [6] was inactive. Besides, the result in the series with HeLa [18] and with PC-3 [19] was inactive. In addition, the outcome with Hep 3B2 and with HepG2 [9] was Active. Moreover, the Activity (in the series with HepG2 [10]; in the series with HepG2 [11]; in the series with HepG2 [12]; in the series on HepG2 [13]; in series [14]; in [15]) was 0% in each case. Further, the Activity in series [16] and in series [17] was 0% in each case.
As for `CC1(C)CC[C@]2(C(=O)O)CC[C@]3(C)C(=CC[C@@H]4[C@@]5(C)CC[C@H](OC(=O)CCC(=O)OCCOCCOc6no[n+]([O-])c6S(=O)(=O)c6ccccc6)C(C)(C)[C@@H]5CC[C@]43C)[C@@H]2C1`, the outcome with MCF7 [1], in the series with HEK293 [2], in the series with HeLa [3], in the series with PC-3 [4], with MCF7 [5] and with HEK293 [6] was inactive. For the same compound, the outcome with HeLa [18] and in the series on PC-3 [19] was inactive. Besides, the result in the series on Hep 3B2 and with HepG2 [9] was Active. Also, the Activity was 95.63% in the series with HepG2 [10]; 67.96% with HepG2 [11]; 17.32% in the series on HepG2 [12]; 2.7% with HepG2 [13]; 88.65% in series [14]; 56.43% in series [15]. Also, the Activity in series [16] is 9.78%; in series [17], 0%.
